Reference: US7414066B2, “Amide compounds and medications containing the same technical field” (Kowa Company Ltd., priority 1999, dated 2008)

First: CSc1nccc(C)c1NC(=O)CCCCCSc1nc2ccccc2o1 [Compound No. 155, 6-(benzoxazol-2-ylthio)-N-(4-methyl-2-methylthio-3-pyridyl)hexanamide]
Second: CSc1cc(C)nc(SC)c1NC(=O)CCCCCCSc1nc2ccccc2o1 [Compound No. 786, 7-(benzoxazol-2-ylthio)-N-[2,4-bis(methylthio)-6-methyl-3-pyridyl]heptanamide]
The melting point of the first is lower: 122 to 124 °C for the first, 137 to 139 °C for the second.

First: CSc1nc(C)ccc1NC(=O)CSc1nc2ccccc2s1 [Compound No. 461, 2-(benzothiazol-2-ylthio)-N-(6-methyl-2-methylthio-3-pyridyl)acetamide]
Second: CSc1cc(C)nc(SC)c1NC(=O)CSc1nc2ccccc2s1 [Compound No. 791, 2-(benzothiazol-2-ylthio)-N-[2,4-bis(methylthio)-6-methyl-3-pyridyl)acetamide]
The melting point of the first is lower: 175 to 176 °C for the first, 178 to 179 °C for the second.

Compared with CSc1cc(C)nc(SC)c1NC(=O)CCCCSc1nc2ccccc2o1 [Compound No. 784, 5-(benzoxazol-2-ylthio)-N-(2,4-bis(methylthio)-6-methyl-3-pyridyl)pentanamide], CSc1cc(C)nc(SC)c1NC(=O)CCCCCCCSc1nc2ccccc2o1 [Compound No. 787, 8-(benzoxazol-2-ylthio)-N-[2,4-bis(methylthio)-6-methyl-3-pyridyl]octanamide] is lower in melting point: 147 to 150 °C for the first, 119 to 122 °C for the second.

First: CSc1cc(C)nc(SC)c1NC(=O)CCCCSc1nc2ccccc2s1 [Compound No. 794, 5-(benzothiazol-2-ylthio)-N-(2,4-bis(methylthio)-6-methyl-3-pyridyl)pentanamide]
Second: CSc1cc(C)nc(SC)c1NC(=O)CCCCCCCSc1nc2ccccc2s1 [Compound No. 797, 8-(benzthiazol-2-ylthio)-N-[2,4-bis(methylthio)-6-methyl-3-pyridyl)octanamide]
The melting point of the first is higher: 121 to 123 °C for the first, 104 to 108 °C for the second.

Compared with CSc1cc(C)nc(SC)c1NC(=O)CCCCSc1nc2ccccc2[nH]1 [Compound No. 804, 5-(benzimidazol-2-ylthio)-N-[2,4-bis(methylthio)-6-methyl-3-pyridyl]pentanamide], CSc1cc(C)nc(SC)c1NC(=O)CCCCCCSc1nc2ccccc2[nH]1 [Compound No. 806, 7-(benzimidazol-2-ylthio)-N-[2,4-bis(methylthio)-6-methyl-3-pyridyl]heptanamide] is higher in melting point: 176 to 177 °C for the first, 189 to 192 °C for the second.

First: CSc1cc(C)nc(SC)c1NC(=O)CCCCCCCSc1nc2ccccc2[nH]1 [Compound No. 807, 8-(benzimidazol-2-ylthio)-N-[2,4-bis(methylthio)-6-methyl-3-pyridyl]octanamide]
Second: CCSc1cc(C)nc(SCC)c1NC(=O)CCCCCCCSc1nc2ccccc2[nH]1 [Compound No. 837, 8-(benzoimidazol-2-ylthio)-N-[2,4-bis(ethylthio)-6-methyl-3-pyridyl]octanamide]
The melting point of the first is higher: 186 to 187 °C for the first, 166 to 168 °C for the second.

First: CCSc1cc(C)nc(SCC)c1NC(=O)CCCCSc1nc2ccccc2o1 [Compound No. 814, 5-(benzoxazol-2-ylthio)-N-[2,4-bis(ethylthio)-6-methyl-3-pyridyl]pentanamide]
Second: CCSc1cc(C)nc(SCC)c1NC(=O)CCCCCCSc1nc2ccccc2o1 [Compound No. 816, 7-(benzoxazol-2-ylthio)-N-[2,4-bis(ethylthio)-6-methyl-3-pyridyl]heptanamide]
The melting point of the first is higher: 122 to 123 °C for the first, 103 to 105 °C for the second.

First: CCSc1cc(C)nc(SCC)c1NC(=O)CCCCCCCSc1nc2ccccc2o1 [Compound No. 817, 8-(benzoxazol-2-ylthio)-N-[2,4-bis(ethylthio)-6-methyl-3-pyridyl]octanamide]
Second: CCSc1cc(C)nc(SCC)c1NC(=O)CCCCCCCSc1nc2ccccc2s1 [Compound No. 827, 8-(benzothiazol-2-ylthio)-N-[2,4-bis(ethylthio)-6-methyl-3-pyridyl]octanamide]
The melting point of the first is lower: 82 to 84 °C for the first, 94 to 96 °C for the second.

Compared with CCSc1cc(C)nc(SCC)c1NC(=O)CCCSc1nc2ccccc2s1 [Compound No. 823, 4-(benzothiazol-2-ylthio)-N-[2,4-bis(ethylthio)-6-methyl-3-pyridyl]butanamide], CCSc1cc(C)nc(SCC)c1NC(=O)CCCCSc1nc2ccccc2s1 [Compound No. 824, 5-(benzothiazol-2-ylthio)-N-[2,4-bis(ethylthio)-6-methyl-3-pyridyl]pentanamide] is lower in melting point: 119 to 120 °C for the first, 102 to 104 °C for the second.

Compared with CCSc1cc(C)nc(SCC)c1NC(=O)CCCCCCSc1nc2ccccc2s1 [Compound No. 826, 7-(benzothiazol-2-ylthio)-N-[2,4-bis(ethylthio)-6-methyl-3-pyridyl]heptanamide], CCSc1cc(C)nc(SCC)c1NC(=O)CCCCCCSc1nc2ccccc2[nH]1 [Compound No. 836, 7-(benzimidazol-2-ylthio)-N-[2,4-bis(ethylthio)-6-methyl-3-pyridyl]heptanamide] is higher in melting point: 114 to 116 °C for the first, 151 to 156 °C for the second.

First: CCSc1cc(C)nc(SCC)c1NC(=O)CCCSc1nc2ccccc2[nH]1 [Compound No. 833, 4-(benzimidazol-2-ylthio)-N-[2,4-bis(ethylthio)-6-methyl-3-pyridyl]butanamide]
Second: CCSc1cc(C)nc(SCC)c1NC(=O)CCCCSc1nc2ccccc2[nH]1 [Compound No. 834, 5-(benzimidazol-2-ylthio)-N-[2,4-bis(ethylthio)-6-methyl-3-pyridyl]pentanamide]
The melting point of the first is lower: 160 to 161 °C for the first, 163 to 165 °C for the second.

First: Cc1cc(SC(C)C)c(NC(=O)CCCCSc2nc3ccccc3o2)c(SC(C)C)n1 [Compound No. 844, 5-(benzoxazol-2-ylthio)-N-[2,4-bis(isopropylthio)-6-methyl-3-pyridyl]pentanamide]
Second: Cc1cc(SC(C)C)c(NC(=O)CCCCCCSc2nc3ccccc3o2)c(SC(C)C)n1 [Compound No. 846, 7-(benzoxazol-2-ylthio)-N-[2,4-bis(isopropylthio)-6-methyl-3-pyridyl]heptanamide]
The melting point of the first is higher: 129 to 130 °C for the first, 76 to 78 °C for the second.

First: Cc1cc(SC(C)C)c(NC(=O)CSc2nc3ccccc3s2)c(SC(C)C)n1 [Compound No. 851, 2-(benzothiazol-2-ylthio)-N-[2,4-bis(isopropylthio)-6-methyl-3-pyridyl]acetamide]
Second: Cc1cc(SC(C)C)c(NC(=O)CCCSc2nc3ccccc3s2)c(SC(C)C)n1 [Compound No. 853, 4-(benzothiazol-2-ylthio)-N-[2,4-bis(isopropylthio)-6-methyl-3-pyridyl]butanamide]
The melting point of the first is higher: 117 to 118 °C for the first, 116 to 117 °C for the second.

Compared with Cc1cc(SC(C)C)c(NC(=O)CCCCSc2nc3ccccc3s2)c(SC(C)C)n1 [Compound No. 854, 5-(benzothiazol-2-ylthio)-N-[2,4-bis(isopropylthio)-6-methyl-3-pyridyl]pentanamide], Cc1cc(SC(C)C)c(NC(=O)CCCCCSc2nc3ccccc3s2)c(SC(C)C)n1 [Compound No. 855, 6-(benzothiazol-2-ylthio)-N-[2,4-bis(isopropylthio)-6-methyl-3-pyridyl]hexanamide] is lower in melting point: 107 to 109 °C for the first, 84 to 86 °C for the second.

In the case of CSc1nc(C)ccc1NC(=O)CSc1nc2ccccc2[nH]1 [Compound No. 471, 2-(benzimidazol-2-ylthio)-N-(6-methyl-2-methylthio-3-pyridyl)acetamide], the melting point is reported as 192 to 193 °C (dec.).
